8 compounds from patent US10981932B2, “Macrocyclic indole derivatives” (Bayer Aktiengesellschaft, priority 2016, dated 2021) can be followed below.

Structures can show the parent of a compound that is named as a salt. Where two headings read alike, the source gives them in different places. Some results are limits rather than exact numbers.

For series [1], the system named is SUDHL5. Kind of series: Anti-proliferative effect (CellTiter-Glo, 72 h), SUDHL5. The series is classed as cell-based. As to conditions: SUDHL5 cells, antiproliferation, median, read-out: Antiproli SUDHL5 [M] (median). Summed up: (§1)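 After seeding, one plate is read right away by CellTiter-Glo luminescence to fix time zero. The treated plates stay at 37 °C in humidified air for 72 h and are then measured with the same reagent and 10 min incubation.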
A general note: ATP-based viability assays read luminescence as a measure of living cells.

Series [2] deals with SUDHL10. Kind of series: Anti-proliferative effect (CellTiter-Glo, 72 h), SUDHL10. It counts as cell-based. The conditions noted are these: SUDHL10 cells, antiproliferation, median, read-out: Antiproli SUDHL10 [M] (median). The procedure, abridged:
as §1

A further series has as its system MV-4-11. Kind of series: Anti-proliferative effect (CellTiter-Glo, 72 h), MV-4-11. It counts as cell-based. The conditions noted are these: MV-4-11 cells, median, read-out: IC50 antiproliferation assay MV-4-11 [M] (median). Summed up:
as §1

Series [3] deals with SUDHL5. Kind of series: Induction of caspase-3/7 activity (Caspase-Glo 3/7), SUDHL5. The conditions noted are these: caspase-3/7 induction, SUDHL5 cells, 3 h treatment, median. The series is classed as cell-based. Summed up:
(§2)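 Apoptosis induction measured as caspase-3/7 activity (Caspase-Glo 3/7) in DLBCL lines after 3 h treatment at 37 °C; EC50 derived relative to the reference compound's maximal induction, with C0 fixed at 1.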

Another series deals with A2780. Nature of the series: Anti-proliferative effect (CellTiter-Glo, 72 h), A2780. It counts as cell-based. As to conditions: A2780 cells, median, read-out: IC50 antiproliferation assay A2780 [M] (median). Summed up:
as §1

The test system of series [4] is SUDHL5. Nature of the series: Induction of cytotoxicity (CellTiter-Glo, 5 h), SUDHL5.
Series [5] concerns SUDHL10. Kind of series: Induction of caspase-3/7 activity (Caspase-Glo 3/7), SUDHL10. The series is classed as cell-based. As to conditions: caspase-3/7 induction, SUDHL10 cells, 3 h treatment, median. The procedure, abridged:
as §2

For another series, the target named is MCL-1 (Homo sapiens, UniProt Q07820). Kind of series: Protein-protein interaction assay MCL-1/Noxa BH3 peptide (MCL-1 assay), TR-FRET. The series is classed as binding. As to conditions: MBP-MCL-1 / Noxa BH3-derived peptide, median. The procedure, abridged: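 Inhibition values were normalized between DMSO controls with all reagents and controls lacking MCL-1. The binding competition used 1 nM MBP-MCL-1 in pH 7 Tris buffer containing 50 mM KF and 100 mM NaCl, with a 10 min compound preincubation at 22 °C.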
On the technique in general: TR-FRET usually uses a lanthanide donor and a delayed reading to cut background.

Series [6] relates to SUDHL10. Kind of series: Induction of cytotoxicity (CellTiter-Glo, 5 h), SUDHL10.
[7] abbreviates: read-out: Cytotox SUDHL5 [M] (median), SUDHL5 cells, cytotoxicity induction, CellTiter-Glo, 5 h incubation, median.
[8] abbreviates: read-out: Cytotox SUDHL10 [M] (median), SUDHL10 cells, cytotoxicity induction, CellTiter-Glo, 5 h incubation, median.
The mark [9] stands for this setting: read-out: Cytotox SUDHL5 [M] (median), SUDHL5 cells, cytotoxicity induction, CellTiter-Glo, 5 h, median.
Where [10] appears, read: read-out: Cytotox SUDHL10 [M] (median), SUDHL10 cells, cytotoxicity induction, CellTiter-Glo, 5 h, median.

Chain of MCL-1 (Q07820 whole entry): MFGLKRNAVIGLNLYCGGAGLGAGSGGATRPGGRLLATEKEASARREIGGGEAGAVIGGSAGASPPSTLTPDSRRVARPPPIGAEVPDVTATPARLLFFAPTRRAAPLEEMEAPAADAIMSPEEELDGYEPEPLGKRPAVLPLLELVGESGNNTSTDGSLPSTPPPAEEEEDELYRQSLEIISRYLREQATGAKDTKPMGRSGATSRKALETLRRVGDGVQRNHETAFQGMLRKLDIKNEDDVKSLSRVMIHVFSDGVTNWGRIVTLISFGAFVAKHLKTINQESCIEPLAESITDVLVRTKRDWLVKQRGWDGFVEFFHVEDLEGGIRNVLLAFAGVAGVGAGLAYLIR

On to `Cc1c2c(nn1C)CCCCCCn1c(C(=O)O)c(CCCOc3cccc4ccccc34)c3cccc-2c31` (single isomer, unassigned; enantiomer 1) [Example 191, 2,3-dimethyl-7-[3-(1-naphthyloxy)propyl]-10,11,12,13,14,15-hexahydro-2H-pyrazolo[4′,3′:4,5]azacycloundecino[3,2,1-hi]indole-8-carboxylic acid-N-ethylethanamine Salt (Enantiomer 1)], for which the IC50 in the series on SUDHL5 [1] (72 h incubation) amounted to 3.23e-06 M; in the series with SUDHL10 [2] (Homo sapiens, SU-DHL10, 72 h, 72 h incubation), 4.64e-06 M; with MV-4-11 (Homo sapiens, MV4-11, 72 h), 2.58e-06 M; with A2780 (Homo sapiens, A2780, 72 h), 2.55e-05 M; with SUDHL5 [4] (setting [7]), 1.87e-06 M; at MCL-1, 0.00273 µM. For the same compound, the IC50 in the series on SUDHL10 [6] (setting [8]) is 5.01e-06 M. In addition, the figures for the EC50 in the series with SUDHL5 [3] and in the series on SUDHL10 [5] were 2.09 µM and 7.16 µM, respectively.

As to `CCCc1nn(C)c2c1-c1c(C)ccc3c(CCCOc4cccc5ccccc45)c(C(=O)O)n(c13)CCCN(C)C2` (single isomer, unassigned; enantiomer 1) [Example 196, 7,9,12-trimethyl-1-[3-(naphthalen-1-yloxy)propyl]-11-propyl-4,5,6,7,8,9-hexahydropyrazolo[3′,4′:7,8][1,5]diazecino[9,10,1-hi]indole-2-carboxylic acid-N-ethylethanamine Salt (Enantiomer 1)], the IC50 with SUDHL5 [1] (72 h incubation) was 1.45e-06 M; in the series on SUDHL10 [2] (72 h incubation) it was 2.19e-06 M; in the series on MV-4-11 (Homo sapiens, MV4-11, 72 h), 4.83e-06 M; in the series with A2780 (Homo sapiens, A2780, 72 h), 1.53e-05 M; in the series on SUDHL5 [4] (setting [7]) it was 1.36e-06 M; on MCL-1, 0.00161 µM. For the same compound, the IC50 in the series on SUDHL10 [6] (setting [8]) worked out at 2.92e-06 M. The figures for the EC50 in the series on SUDHL5 [3] and in the series on SUDHL10 [5] were 1.39 µM and 2.85 µM, respectively.

With `Cc1nn(C)c2c1-c1cccc3c(CCCOc4cccc5ccccc45)c(C(=O)O)n(c13)CCCCOC2` (single isomer, unassigned; enantiomer 1) [Example 317, (+)-1,3-dimethyl-7-[3-(naphthalen-1-yloxy)propyl]-1,10,11,12,13,15-hexahydropyrazolo[4′,3:9,10][1,6]oxazacycloundecino[8,7,6-hi]indole-8-carboxylic Acid (Enantiomer 1)], the IC50 in the series on SUDHL5 [1] (Homo sapiens, SU-DHL-5, 72 h, 72 h) was 2.71e-05 M; in the series on SUDHL10 [2] (Homo sapiens, SU-DHL10, 72 h, 72 h) it was more than 3.3e-05 M; in the series with MV-4-11 (Homo sapiens, MV4-11, 72 h), 2.34e-05 M; with A2780 (Homo sapiens, A2780, 72 h) it was more than 3.3e-05 M; in the series with SUDHL5 [4] (Homo sapiens, SU-DHL-5, 5 h, read-out: Cytotox SUDHL5 [M] (median), SUDHL5 cells, cytotoxicity induction, CellTiter-Glo, 5 h, median) it was 1.55e-05 M; at MCL-1, 0.0115 µM. The IC50 with SUDHL10 [6] (Homo sapiens, SU-DHL10, 5 h, read-out: Cytotox SUDHL10 [M] (median), SUDHL10 cells, cytotoxicity induction, CellTiter-Glo, 5 h, median) is more than 3.3e-05 M. Also, the EC50 (as a rule, the concentration that produces a half-maximal response) with SUDHL5 [3] (Homo sapiens, SU-DHL-5, 3 h) was 24.5 µM; with SUDHL10 [5] (Homo sapiens, SU-DHL10, 3 h), more than 33 µM.

As for `Cc1cc(OCCCc2c(C(=O)O)n3c4c(cccc24)-c2c(C)nn(C)c2COCCC3)cc(C)c1Cl` (single isomer, unassigned; enantiomer 2) [Example 015, 1-[3-(4-chloro-3,5-dimethylphenoxy)propyl]-9,11-dimethyl-5,6,8,9-tetrahydro-4H-pyrazolo[4′,3′:8,9][1,5]oxazecino[7,6,5-hi]indole-2-carboxylic acid-N-ethylethanamine Salt (Enantiomer 2)], the IC50 in the series with SUDHL5 [1] (72 h incubation) stood at 1.13e-05 M; in the series with SUDHL10 [2] (72 h incubation), 8.48e-06 M; in the series with MV-4-11 (Homo sapiens, MV4-11, 72 h) it was 1.33e-05 M; in the series with A2780, 1.23e-05 M; in the series with SUDHL5 [4] (setting [7]), 2.1e-05 M; against MCL-1, 0.00958 µM. For the same compound, the IC50 in the series with SUDHL10 [6] (setting [8]) stood at 2.87e-05 M. The EC50 in the series with SUDHL5 [3] came to 25.7 µM; with SUDHL10 [5], 29.2 µM.

Regarding `CCc1c2c(nn1C)CN(C)CCCn1c(C(=O)O)c(CCCOc3cccc4ccccc34)c3cccc-2c31` (single isomer, unassigned; enantiomer 2) [Example 143, 11-ethyl-7,10-dimethyl-1-[3-(1-naphthyloxy)propyl]-4,5,6,7,8,10-hexahydropyrazolo[3′,4′:7,8][1,5]diazecino[9,10,1-hi]indole-2-carboxylic acid-N-ethylethanamine Salt (Enantiomer 2)], the IC50 in the series on SUDHL5 [1] (72 h incubation) was 1.44e-05 M; in the series with SUDHL10 [2] (72 h incubation) it was 2.02e-05 M; with MV-4-11 (Homo sapiens, MV4-11, 72 h), 1.2e-05 M; in the series with A2780, 1.21e-05 M; in the series with SUDHL5 [4] (setting [7]) it was 1.36e-05 M; against MCL-1, 0.0308 µM. The IC50 in the series with SUDHL10 [6] (setting [8]) was determined as 2.69e-05 M. Moreover, the results for the EC50 in the series with SUDHL5 [3] and in the series with SUDHL10 [5] were 25 µM and more than 33 µM, respectively.

With `CCc1c2c(nn1CCN1CCOCC1)COCCCCn1c(C(=O)O)c(CCCOc3cccc4ccccc34)c3cccc-2c31` (single isomer, unassigned; enantiomer 2) [Example 203, 3-ethyl-2-[2-(morpholin-4-yl)ethyl]-7-[3-(naphthalen-1-yloxy)propyl]-2,10,11,12,13,15-hexahydropyrazolo[4′,3′:9,10][1,6]oxazacycloundecino[8,7,6-hi]indole-8-carboxylic Acid (Enantiomer 2)], the IC50 turned out to be 2.19e-06 M in the series with SUDHL5 [1] (72 h incubation); 1.78e-06 M with SUDHL10 [2] (72 h incubation); 2.8e-06 M in the series on MV-4-11 (Homo sapiens, MV4-11, 72 h); 2.21e-05 M with A2780; 1.32e-06 M with SUDHL5 [4] (setting [7]); 0.0021 µM on MCL-1. In addition, the IC50 with SUDHL10 [6] (setting [8]) was found to be 4.31e-06 M. Also, the EC50 with SUDHL5 [3] was 1.61 µM; in the series on SUDHL10 [5] it was 7.45 µM.

For the compound `Cc1nn(C)c2c1-c1cccc3c(CCCOc4cccc5ccccc45)c(C(=O)O)n(c13)CCCCOC2` (single isomer, unassigned; enantiomer 2) [Example 318, (−)-1,3-dimethyl-7-[3-(naphthalen-1-yloxy)propyl]-1,10,11,12,13,15-hexahydropyrazolo[4′,3′:9,10][1,6]oxazacycloundecino[8,7,6-hi]indole-8-carboxylic Acid (Enantiomer 2)], the IC50 in the series on SUDHL5 [1] (72 h) was 1.84e-05 M; with SUDHL10 [2] (72 h), 2.72e-05 M; in the series with MV-4-11 it was 3.28e-05 M; in the series with A2780, more than 3.3e-05 M; with SUDHL5 [4] (setting [9]) it was 1.62e-05 M; on MCL-1, 0.0131 µM. Moreover, the IC50 in the series with SUDHL10 [6] (setting [10]) was more than 3.3e-05 M. Further, the EC50 in the series with SUDHL5 [3] is 26.4 µM; in the series with SUDHL10 [5] it was more than 33 µM.

As to `Cn1nc(CN2CCCCC2)c2c1COCCCCn1c(C(=O)O)c(CCCOc3cccc4ccccc34)c3cccc-2c31` (single isomer, unassigned; enantiomer 2) [Example 334, 1-methyl-7-[3-(naphthalen-1-yloxy)propyl]-3-(piperidin-1-ylmethyl)-1,10,11,12,13,15-hexahydropyrazolo[4′3′:9,10][1,6]oxazacycloundecino[8,7,6-hi]indole-8-carboxylic Acid (Enantiomer 2)], the IC50 with SUDHL5 [1] (72 h) is 1.68e-05 M; in the series with SUDHL10 [2] (72 h), 1.54e-05 M; in the series with MV-4-11 (Homo sapiens, MV4-11, 72 h) it was 1.47e-05 M; in the series on A2780 it was 2.87e-05 M; in the series with SUDHL5 [4] (setting [9]), 1.85e-05 M; against MCL-1 it was 0.0917 µM. In addition, the IC50 in the series with SUDHL10 [6] (setting [10]) was determined as 2.67e-05 M. The EC50 was found to be 16.9 µM in the series on SUDHL5 [3] and 25.7 µM in the series with SUDHL10 [5].
